Data taken from PMC10057977, “Use of In Vivo Imaging and Physiologically-Based Kinetic Modelling to Predict Hepatic Transporter Mediated Drug–Drug Interactions in Rats” (Pharmaceutics, 2023).
Read-outs that look alike come from different tables or passages of the source.

Assays:
[1] = cited from earlier work
[2] = parameters: method as in supplement [28]; conditions: rat; 30 min after 3 mg/kg ketoconazole IV; ref supplement [28]; cited from earlier work
OATP1B3 = tested on: OATP1B3; parameters: method as in earlier work; conditions: in vitro; ref 30,43-55 and in-house data from Merck & Co.; cited from earlier work
MRP2 = conditions: in vitro; bracket not explained in the table; ref 30,43-55 and in-house data from Merck & Co.; cited from earlier work
OATP1B1 = tested on: OATP1B1; parameters: method as in earlier work; conditions: in vitro, bracket not explained in the table, ref 30,43-55 and in-house data from Merck & Co., cited from earlier work
NTCP = tested on: NTCP; parameters: method as in earlier work; conditions: in vitro; ref 30,43-55 and in-house data from Merck & Co.; cited from earlier work
rMrp2 = rMrp2 (Rattus norvegicus, UniProt Q63120); format: in vivo; parameters: from tissue; host or cells: liver of living male Wistar rats (Charles River Laboratories); conditions: ketoconazole 3 mg/kg iv
Sequence of rMrp2 (Q63120 whole entry): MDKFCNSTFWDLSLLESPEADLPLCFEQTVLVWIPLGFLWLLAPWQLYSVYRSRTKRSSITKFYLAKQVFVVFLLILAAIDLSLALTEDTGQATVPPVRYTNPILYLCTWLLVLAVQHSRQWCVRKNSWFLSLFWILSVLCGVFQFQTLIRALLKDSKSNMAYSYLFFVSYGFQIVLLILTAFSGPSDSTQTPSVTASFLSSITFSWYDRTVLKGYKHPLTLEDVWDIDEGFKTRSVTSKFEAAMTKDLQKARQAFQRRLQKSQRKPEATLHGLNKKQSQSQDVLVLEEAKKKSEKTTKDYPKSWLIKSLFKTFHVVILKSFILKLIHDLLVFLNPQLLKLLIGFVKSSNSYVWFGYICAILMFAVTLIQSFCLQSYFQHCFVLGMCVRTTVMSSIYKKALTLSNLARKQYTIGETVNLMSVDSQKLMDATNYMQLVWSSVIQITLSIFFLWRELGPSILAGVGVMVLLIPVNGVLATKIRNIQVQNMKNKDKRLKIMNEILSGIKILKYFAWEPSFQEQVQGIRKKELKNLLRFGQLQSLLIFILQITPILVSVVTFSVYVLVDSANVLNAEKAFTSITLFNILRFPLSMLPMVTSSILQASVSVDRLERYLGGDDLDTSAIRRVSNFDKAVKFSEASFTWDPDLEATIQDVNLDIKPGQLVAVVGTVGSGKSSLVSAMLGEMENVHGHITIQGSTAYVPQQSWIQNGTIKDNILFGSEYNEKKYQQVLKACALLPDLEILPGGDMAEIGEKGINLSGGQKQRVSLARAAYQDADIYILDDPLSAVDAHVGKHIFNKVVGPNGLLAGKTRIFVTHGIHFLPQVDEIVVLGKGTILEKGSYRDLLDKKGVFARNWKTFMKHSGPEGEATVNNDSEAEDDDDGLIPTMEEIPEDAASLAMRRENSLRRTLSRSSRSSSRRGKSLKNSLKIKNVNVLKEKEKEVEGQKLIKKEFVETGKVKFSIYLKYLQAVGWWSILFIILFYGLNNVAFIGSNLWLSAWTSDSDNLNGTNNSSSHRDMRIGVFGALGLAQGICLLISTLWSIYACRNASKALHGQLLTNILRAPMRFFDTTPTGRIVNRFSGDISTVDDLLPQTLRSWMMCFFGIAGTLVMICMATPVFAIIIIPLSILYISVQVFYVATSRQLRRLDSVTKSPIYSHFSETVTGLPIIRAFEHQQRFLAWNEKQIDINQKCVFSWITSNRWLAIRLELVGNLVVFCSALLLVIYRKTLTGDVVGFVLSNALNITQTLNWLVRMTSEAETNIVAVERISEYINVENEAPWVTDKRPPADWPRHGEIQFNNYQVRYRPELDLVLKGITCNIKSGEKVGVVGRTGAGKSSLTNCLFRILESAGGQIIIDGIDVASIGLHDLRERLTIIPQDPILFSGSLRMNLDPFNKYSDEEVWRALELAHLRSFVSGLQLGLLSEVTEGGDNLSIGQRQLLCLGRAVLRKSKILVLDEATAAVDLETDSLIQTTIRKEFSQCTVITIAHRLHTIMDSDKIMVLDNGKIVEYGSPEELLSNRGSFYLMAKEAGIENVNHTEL
Excerpt: The tracer-kinetic model was developed to enable estimation of rate constants of hepatobiliary efflux from DCE-MRI profiles in individual animals. In this approach, the liver was assumed to consist of two compartments, the extracellular space (e) and the hepatocytes (h). Since water exchanges rapidly between those spaces, the change in relaxation rate was a weighted average (Equation (4)). (4) ΔR1(t)=r1,e·ve·ce(t)+r1,h·vh·ch(t)
The proportionality constant, r1,τ [L⋅mmol^−1⋅s^−1] , is the relaxivity of the contrast agent for the compartment τ (extracellular space, e or hepatocytes, h) at the respective field strength, while vτ [mL/mL tissue] is the volume fraction of the compartment τ . Previously measured ex vivo r1,tau values for gadoxetate were used in this work, as per. The underlying assumptions of the PBPK and tracer-kinetic models, relating to physiological volumes and perfusion, are consistent, despite different parameterizations according to the purpose of each model. For example, Vliv,extr in the PBPK model is defined as an absolute volume (units = L; sum of liver plasma and interstitial volumes), while in the tracer-kinetic model, ve is a volume fraction (dimensionless), defined as Vliv,extr/Vliver , where Vliver is the total liver volume. While some analogy can be drawn between CLactive […], and CLbiliary and kbh, the interpretations are distinct. For example, the operating concentrations of the PBPK parameters CLactive […], and CLbiliary are the unbound concentrations of gadoxetate in plasma and hepatocytes, while the tracer-kinetic model is parameterized with respect to the total concentration of gadoxetate.
Since ce(t) is the input to the hepatocytes, and no backflux from hepatocytes to extracellular space is assumed, Equation (5) can be derived. (5) vh·ch(t)=e^−t/Th∗khe·ce(t) where Th is the mean transit time of gadoxetate in the hepatocytes [min] , and * is convolution. The extracellular space is assumed to be in equilibrium with the blood pool and therefore the concentration ce(t) is proportional to the concentration cp(t) in the plasma of the feeding artery, i.e., ce(t) = (1 − E)·cp(t), where E is the extraction fraction of gadoxetate in the liver. Combining this assumption with Equations (4) and (5), and using (1 − E)·khe = E·Fp, with Fp being the apparent plasma flow into the liver [mL/min/mL tissue volume] , gives Equation (6), the operational equation for gadoxetate DCE-MRI in the liver. (6) ΔR1(t)=(1−E)·ve·r1,p·cp(t)+E·Fp·r1,h ·e^−t/Th ∗cp(t)
The rate constants were derived as K^trans = E·Fp, khe = E·Fp/(1 − E), and kbh = vh/Th, with a literature value for vh. The plasma concentrations cp(t) were not reliably measured in small animals due to the small diameter of the main vessels compared to the resolution of the measurement. […] Therefore, the source term cp(t) was derived from a two-compartment pharmacokinetic model for gadoxetate (see Supplementary Material, Section S5), and a step function as input in the blood compartment. The parameters kbh and khe were fitted to the liver data using a model implementation in Python. For each rat considered in these studies, the rate constants K^trans, khe, and kbh were calculated, in both control and inhibitory phases. The rate constants of the control and inhibitory phases were compared via calculation of simple (unstandardized) effect sizes (i.e., simple effect size = μcontrol − μtreatment, where μ is the mean average of all subjects) at the 95% confidence level. Statistical significance was assessed through a two-sided paired t-test, with p < 0.05 considered significant.

[3] = Drug plasma concentrations in humans at therapeutic dosing; format: in vivo; conditions: ketoconazole plasma exposure, human

CC(=O)N1CCN(c2ccc(OCC3COC(Cn4ccnc4)(c4ccc(Cl)cc4Cl)O3)cc2)CC1 (stereo not shown) [Ketoconazole]
Cmax ([1]; human plasma, daily dose 200 mg (ketoconazole), read-out: Cmax (µM) [Daily Dose]): 6.6 µM
clinical Ctrough ([1]; human, ref supplement [29]): 0.2 µM
Cmax ([1]; human, ref supplement [29], read-out: clinical Cmax): 7 µM
plasma concentration [2]: 4 µM
IC50 (OATP1B3): 3.9 µM
IC50 (MRP2): > 20 µM
IC50 (OATP1B1): 15.4 µM
Ki (OATP1B1): 50.7 µM
IC50 (OATP1B1; listed as ketoconazole): > 2 µM
IC50 (NTCP): 202 µM
Simple Effect Size (95% CI) kbh (rMrp2; gadoxetate biliary efflux, control − treatment, positive = decrease, site D): 0.02 (−0.02, 0.06) mL/min/mL liver
change in gadoxetate kbh vs control (rMrp2; rat, p = 0.39): no significant changes
unbound Cmax [3]: ~ 0.07 µM
